Data as given in ChEMBL document CHEMBL4715829, “Heterodimeric Rifampicin-Tobramycin conjugates break intrinsic resistance of Pseudomonas aeruginosa to doxycycline and chloramphenicol in vitro and in a Galleria mellonella in vivo model” (Eur J Med Chem, 2019).
≈ marks a conversion by molar mass, not a printed value.

Columns and labels:
Pseudomonas aeruginosa [1] = experiment: Antibacterial activity against Pseudomonas aeruginosa PAO1 assessed as fractional inhibitory concentration index in presence of Aztreonam incubated for 18 hrs by broth microdilution assay based checkerboard assay; format: functional
Pseudomonas aeruginosa [2] = experiment: Antibacterial activity against Pseudomonas aeruginosa PAO1 assessed as reduction in bacterial growth by measuring cefotaxime MIC at <=[…] uM in presence of cefotaxime incubated for 18 hrs by broth microdilution assay based checkerboard assay (reference value: […] microg/ml); format: functional; settings: dose microM <=10
[3] = Cytotoxicity against human HepG2 cells assessed as cell viability at <10 uM incubated for 48 hrs prestoblue assay; format: cell-based; settings: read-out: Activity
Pseudomonas aeruginosa [4] = experiment: Antibacterial activity against Pseudomonas aeruginosa PAO1 assessed as fractional inhibitory concentration index in presence of Chloramphenicol incubated for 18 hrs by broth microdilution assay based checkerboard assay; format: functional
Pseudomonas aeruginosa [5] = experiment: Antibacterial activity against Pseudomonas aeruginosa PAO1 assessed as fractional inhibitory concentration index in presence of Tigecycline incubated for 18 hrs by broth microdilution assay based checkerboard assay; format: functional
Pseudomonas aeruginosa [6] = experiment: Antibacterial activity against Pseudomonas aeruginosa PAO1 assessed as fractional inhibitory concentration index in presence of Cefotaxime incubated for 18 hrs by broth microdilution assay based checkerboard assay; format: functional
Pseudomonas aeruginosa [7] = experiment: Antibacterial activity against Pseudomonas aeruginosa 101243 assessed as reduction in bacterial growth incubated for 18 hrs by broth microdilution assay; format: functional
Pseudomonas aeruginosa [8] = experiment: Antibacterial activity against Pseudomonas aeruginosa PAO1 assessed as reduction in bacterial growth by measuring clindamycin MIC at <=10 uM in presence of clindamycin incubated for 18 hrs by broth microdilution assay based checkerboard assay (reference value: 1024 microg/ml); format: functional; settings: dose microM <=10
Pseudomonas aeruginosa [9] = experiment: Antibacterial activity against Pseudomonas aeruginosa PAO1 assessed as fractional inhibitory concentration index in presence of Tobramycin incubated for 18 hrs by broth microdilution assay based checkerboard assay; format: functional
Pseudomonas aeruginosa [10] = experiment: Antibacterial activity against gentamicin-resistant Pseudomonas aeruginosa CAN-ICU 62308 assessed as reduction in bacterial growth incubated for 18 hrs by broth microdilution assay; format: functional
Pseudomonas aeruginosa [11] = experiment: Antibacterial activity against Pseudomonas aeruginosa PAO1 assessed as fractional inhibitory concentration index in presence of Rifampicin incubated for 18 hrs by broth microdilution assay based checkerboard assay; format: functional
Staphylococcus aureus = experiment: Antibacterial activity against methicillin-resistance Staphylococcus aureus ATCC 33592 assessed as reduction in bacterial growth incubated for 18 hrs by broth microdilution assay; format: functional
Pseudomonas aeruginosa [12] = experiment: Antibacterial activity against Pseudomonas aeruginosa PAO1 assessed as fractional inhibitory concentration index in presence of Doxycycline incubated for 18 hrs by broth microdilution assay based checkerboard assay; format: functional
Pseudomonas aeruginosa [13] = experiment: Antibacterial activity against Pseudomonas aeruginosa 100036 assessed as reduction in bacterial growth incubated for 18 hrs by broth microdilution assay; format: functional
Pseudomonas aeruginosa [14] = experiment: Antibacterial activity against Pseudomonas aeruginosa PAO1 assessed as fractional inhibitory concentration index in presence of Novobiocin incubated for 18 hrs by broth microdilution assay based checkerboard assay; format: functional
Pseudomonas aeruginosa [15] = experiment: Antibacterial activity against Pseudomonas aeruginosa PAO1 assessed as fractional inhibitory concentration index in presence of Clindamycin incubated for 18 hrs by broth microdilution assay based checkerboard assay; format: functional
Pseudomonas aeruginosa [16] = experiment: Antibacterial activity against Pseudomonas aeruginosa PAO1 assessed as reduction in bacterial growth by measuring nitrofurantoin MIC at <=10 uM in presence of nitrofurantoin incubated for 18 hrs by broth microdilution assay based checkerboard assay (reference value: 512 microg/ml); format: functional; settings: dose microM <=10
Escherichia coli [17] = experiment: Antibacterial activity against Escherichia coli ATCC 25922 assessed as reduction in bacterial growth incubated for 18 hrs by broth microdilution assay; format: functional
Pseudomonas aeruginosa [18] = experiment: Antibacterial activity against Pseudomonas aeruginosa PAO1 assessed as reduction in bacterial growth by measuring minocycline MIC at <=10 uM in presence of minocycline incubated for 18 hrs by broth microdilution assay based checkerboard assay (reference value: 8 microg/ml); format: functional; settings: dose microM <=10
Pseudomonas aeruginosa [19] = experiment: Antibacterial activity against Pseudomonas aeruginosa PAO1 assessed as fractional inhibitory concentration index in presence of Erythromycin incubated for 18 hrs by broth microdilution assay based checkerboard assay; format: functional
[20] = Hemolytic activity in porcine erythrocyte at 1024 ug/ml incubated for 1 hr; format: ADME, cell-based, Sus scrofa; settings: pig, porcine erythrocytes, at 1024 µg/mL, read-out: Activity
Pseudomonas aeruginosa [21] = experiment: Antibacterial activity against Pseudomonas aeruginosa PAO1 assessed as reduction in bacterial growth by measuring vancomycin MIC at <=10 uM in presence of vancomycin incubated for 18 hrs by broth microdilution assay based checkerboard assay (reference value: 256 microg/ml); format: functional; settings: dose microM <=10
Pseudomonas aeruginosa [22] = experiment: Antibacterial activity against wild type Pseudomonas aeruginosa PAO1 assessed as reduction in bacterial growth incubated for 18 hrs by broth microdilution assay; format: functional
Pseudomonas aeruginosa [23] = experiment: Antibacterial activity against Pseudomonas aeruginosa 200 harboring efflux mutant assessed as reduction in bacterial growth incubated for 18 hrs by broth microdilution assay; format: functional
Pseudomonas aeruginosa [24] = experiment: Antibacterial activity against Pseudomonas aeruginosa PAO1 assessed as reduction in bacterial growth by measuring tigecycline MIC at <=10 uM in presence of tigecycline incubated for 18 hrs by broth microdilution assay based checkerboard assay (reference value: 4 microg/ml); format: functional; settings: dose microM <=10
Escherichia coli [25] = experiment: Antibacterial activity against gentamicin-resistant Escherichia coli CAN-ICU 61714 assessed as reduction in bacterial growth incubated for 18 hrs by broth microdilution assay; format: functional
Pseudomonas aeruginosa [26] = experiment: Antibacterial activity against Pseudomonas aeruginosa 262-101856 assessed as reduction in bacterial growth incubated for 18 hrs by broth microdilution assay; format: functional
Pseudomonas aeruginosa [27] = experiment: Antibacterial activity against Pseudomonas aeruginosa PAO1 assessed as reduction in bacterial growth by measuring fosfomycin MIC at <=[…] uM in presence of fosfomycin incubated for 18 hrs by broth microdilution assay based checkerboard assay (reference value: […] microg/ml); format: functional; settings: dose microM <=10
Pseudomonas aeruginosa [28] = experiment: Antibacterial activity against Pseudomonas aeruginosa PAO1 assessed as fractional inhibitory concentration index in presence of Moxifloxacin incubated for 18 hrs by broth microdilution assay based checkerboard assay; format: functional
Pseudomonas aeruginosa [29] = experiment: Antibacterial activity against Pseudomonas aeruginosa PAO1 assessed as reduction in bacterial growth by measuring ceftazidime MIC at <=10 uM in presence of ceftazidime incubated for 18 hrs by broth microdilution assay based checkerboard assay (reference value: 2 microg/ml); format: functional; settings: dose microM <=10
Pseudomonas aeruginosa [30] = experiment: Antibacterial activity against Pseudomonas aeruginosa PAO1 assessed as fractional inhibitory concentration index in presence of Pleuromutilin incubated for 18 hrs by broth microdilution assay based checkerboard assay; format: functional
Pseudomonas aeruginosa [31] = experiment: Antibacterial activity against Pseudomonas aeruginosa 259-96918 assessed as fractional inhibitory concentration index in presence of chloramphenicol incubated for 18 hrs by broth microdilution assay; format: functional
Pseudomonas aeruginosa [32] = experiment: Antibacterial activity against Pseudomonas aeruginosa 260-97103 assessed as fractional inhibitory concentration index in presence of chloramphenicol incubated for 18 hrs by broth microdilution assay; format: functional
Pseudomonas aeruginosa [33] = experiment: Antibacterial activity against Pseudomonas aeruginosa 91433 assessed as fractional inhibitory concentration index in presence of chloramphenicol incubated for 18 hrs by broth microdilution assay; format: functional
Pseudomonas aeruginosa [34] = experiment: Antibacterial activity against Pseudomonas aeruginosa 259-96918 assessed as fractional inhibitory concentration index in presence of doxycycline incubated for 18 hrs by broth microdilution assay; format: functional
Pseudomonas aeruginosa [35] = experiment: Antibacterial activity against Pseudomonas aeruginosa 262-101856 assessed as fractional inhibitory concentration index in presence of doxycycline incubated for 18 hrs by broth microdilution assay; format: functional
Pseudomonas aeruginosa [36] = experiment: Antibacterial activity against Pseudomonas aeruginosa 101243 assessed as fractional inhibitory concentration index in presence of chloramphenicol incubated for 18 hrs by broth microdilution assay; format: functional

Structure (SMILES) | fractional inhibitory concentration index (FICI) (Pseudomonas aeruginosa [1]) | MIC (Pseudomonas aeruginosa [2]) [µg/mL] | viability at 48 h [3] [%] | fractional inhibitory concentration index (FICI) (Pseudomonas aeruginosa [4]) | fractional inhibitory concentration index (FICI) (Pseudomonas aeruginosa [5]) | fractional inhibitory concentration index (FICI) (Pseudomonas aeruginosa [6]) | MIC (Pseudomonas aeruginosa [7]) [µg/mL] | MIC (Pseudomonas aeruginosa [8]) [µg/mL] | fractional inhibitory concentration index (FICI) (Pseudomonas aeruginosa [9]) | MIC (Pseudomonas aeruginosa [10]) [µg/mL] | fractional inhibitory concentration index (FICI) (Pseudomonas aeruginosa [11]) | MIC (Staphylococcus aureus) [µg/mL] | MIC (Pseudomonas aeruginosa [13]) [µg/mL] | MIC (Escherichia coli [17]) [µg/mL] | MIC (Pseudomonas aeruginosa [22]) [µg/mL] | MIC (Pseudomonas aeruginosa [23]) [µg/mL] | MIC (Escherichia coli [25]) [µg/mL] | MIC (Pseudomonas aeruginosa [26]) [µg/mL] | fractional inhibitory concentration index (FICI) (Pseudomonas aeruginosa [35]) | fractional inhibitory concentration index (FICI) (Pseudomonas aeruginosa [36]) | other results
CO[C@H]1/C=C/O[C@@]2(C)Oc3c(C)c(O)c4c(O)c(c(/C=N/N5CCN(Cc6cn(CCCCO[C@@H]7[C@@H](O[C@H]8O[C@H](CO)[C@@H](O)[C@H](N)[C@H]8O)[C@H](N)C[C@H](N)[C@H]7O[C@H]7O[C@H](CN)[C@@H](O)C[C@H]7N)nn6)CC5)c(O)c4c3C2=O)NC(=O)/C(C)=C\C=C\[C@H](C)[C@H](O)[C@@H](C)[C@@H](O)[C@@H](C)[C@H](OC(C)=O)[C@@H]1C.O=C(O)C(F)(F)F.O=C(O)C(F)(F)F.O=C(O)C(F)(F)F.O=C(O)C(F)(F)F.O=C(O)C(F)(F)F | 1.03 | 16 | > 90 | 0.28 | 0.51 | 1.03 | 256 | 512 | 1.03 | > 32 | 0.28 | > 32 | > 256 | > 32 | 512 | 256 | > 32 | > 256 |  |  | fractional inhibitory concentration index (FICI) (Pseudomonas aeruginosa [12]): 0.09; fractional inhibitory concentration index (FICI) (Pseudomonas aeruginosa [14]): 0.53; fractional inhibitory concentration index (FICI) (Pseudomonas aeruginosa [15]): 0.53; MIC (Pseudomonas aeruginosa [16]): 512 µg/mL; MIC (Pseudomonas aeruginosa [18]): 2 µg/mL; fractional inhibitory concentration index (FICI) (Pseudomonas aeruginosa [19]): 0.53; hemolysis at 1 h, 1024 ug/ml [20]: < 2%; MIC (Pseudomonas aeruginosa [21]): 256 µg/mL; MIC (Pseudomonas aeruginosa [24]): 2 µg/mL; MIC (Pseudomonas aeruginosa [27]): 16 µg/mL; fractional inhibitory concentration index (FICI) (Pseudomonas aeruginosa [28]): 1.03; MIC (Pseudomonas aeruginosa [29]): 2 µg/mL; fractional inhibitory concentration index (FICI) (Pseudomonas aeruginosa [30]): 1.03
CO[C@H]1/C=C/O[C@@]2(C)Oc3c(C)c(O)c4c(O)c(c(/C=N/N5CCN(Cc6cn(CCCCCCO[C@@H]7[C@@H](O[C@H]8O[C@H](CO)[C@@H](O)[C@H](N)[C@H]8O)[C@H](N)C[C@H](N)[C@H]7O[C@H]7O[C@H](CN)[C@@H](O)C[C@H]7N)nn6)CC5)c(O)c4c3C2=O)NC(=O)/C(C)=C\C=C\[C@H](C)[C@H](O)[C@@H](C)[C@@H](O)[C@@H](C)[C@H](OC(C)=O)[C@@H]1C.Cl.Cl.Cl.Cl.Cl | 1.03 | 16 | > 90 | 0.06 | 0.51 | 1.03 | ≥ 256 | 256 | 1.03 | > 32 | 0.28 | > 32 | 256 | ≥ 32 | 512 | 128 | > 32 | > 256 | <0.07 | 0.187 | fractional inhibitory concentration index (FICI) (Pseudomonas aeruginosa [31]): <0.375; fractional inhibitory concentration index (FICI) (Pseudomonas aeruginosa [32]): <0.141; fractional inhibitory concentration index (FICI) (Pseudomonas aeruginosa [33]): 0.375; fractional inhibitory concentration index (FICI) (Pseudomonas aeruginosa [34]): <0.156; fractional inhibitory concentration index (FICI) (Pseudomonas aeruginosa [12]): 0.06; fractional inhibitory concentration index (FICI) (Pseudomonas aeruginosa [14]): 0.28; fractional inhibitory concentration index (FICI) (Pseudomonas aeruginosa [15]): 0.28; MIC (Pseudomonas aeruginosa [16]): 256 µg/mL; MIC (Pseudomonas aeruginosa [18]): 2 µg/mL; fractional inhibitory concentration index (FICI) (Pseudomonas aeruginosa [19]): 0.15; hemolysis at 1 h, 1024 ug/ml [20]: < 2%; MIC (Pseudomonas aeruginosa [21]): 256 µg/mL; MIC (Pseudomonas aeruginosa [24]): 2 µg/mL; MIC (Pseudomonas aeruginosa [27]): 2 µg/mL; fractional inhibitory concentration index (FICI) (Pseudomonas aeruginosa [28]): 0.53; MIC (Pseudomonas aeruginosa [29]): 2 µg/mL; fractional inhibitory concentration index (FICI) (Pseudomonas aeruginosa [30]): 0.28
CO[C@H]1/C=C/O[C@@]2(C)Oc3c(C)c(O)c4c(O)c(c(/C=N/N5CCN(C)CC5)c(O)c4c3C2=O)NC(=O)/C(C)=C\C=C\[C@H](C)[C@H](O)[C@@H](C)[C@@H](O)[C@@H](C)[C@H](OC(C)=O)[C@@H]1C [RIFAMPIN] |  |  |  |  |  |  | 4 (≈ 4.86 µM) |  |  | 32 (≈ 38.9 µM) |  | > 128 | 32 (≈ 38.9 µM) | 8 (≈ 9.72 µM) | 16 (≈ 19.4 µM) | 16 (≈ 19.4 µM) | 8 (≈ 9.72 µM) | 512 (≈ 622 µM) | 1.5 | 1.5 | 
NC[C@H]1O[C@H](O[C@H]2[C@H](O)[C@@H](O[C@H]3O[C@H](CO)[C@@H](O)[C@H](N)[C@H]3O)[C@H](N)C[C@@H]2N)[C@H](N)C[C@@H]1O [TOBRAMYCIN] |  |  |  |  |  |  | 128 (≈ 274 µM) |  |  | 16 (≈ 34.2 µM) |  | 0.5 (≈ 1.07 µM) | 128 (≈ 274 µM) | 0.5 (≈ 1.07 µM) | 1 (≈ 2.14 µM) | 0.5 (≈ 1.07 µM) | 8 (≈ 17.1 µM) | 1020 (≈ 2190 µM) | <=1.5 | 1.5 | fractional inhibitory concentration index (FICI) (Pseudomonas aeruginosa [31]): 1.25; fractional inhibitory concentration index (FICI) (Pseudomonas aeruginosa [32]): 1; fractional inhibitory concentration index (FICI) (Pseudomonas aeruginosa [33]): 1.5; fractional inhibitory concentration index (FICI) (Pseudomonas aeruginosa [34]): 1.125
